Some test systems named below: HCT-116 colon; OVCAR-5 ovarian; LOX IMVI melanoma; SF-295 CNS; DU-145 prostate; MALME-3M melanoma; COLO 205 colon; HCC-2998 colon.
Common to all, as to assay: inhibition of tumour cell growth, NCI panel, 48 h

Here are results for 13 molecules from PubChem BioAssay (NCI).

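Results reflect a 48-hour exposure of cells in 96-well plates to compound at five concentrations. GI50 marks 50% less growth. At the TGI there is no net growth.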 Bounds are passed on as bounds.

Regarding `COC(=O)CC1(O)C=CC(=O)C=C1`, the TGI was determined as 26.7 µM in the test with HCT-116 colon; 25 µM in the test with OVCAR-5 ovarian; 6.76 µM in the test with LOX IMVI melanoma; 17.7 µM in the test with SF-295 CNS; 18.6 µM in the test with DU-145 prostate; 6.9 µM in the test on MALME-3M melanoma. The TGI with COLO 205 colon came to 17.8 µM; in the test with HCC-2998 colon, 29.4 µM.

In the case of `O=C1CS/C(=N/S(=O)(=O)c2ccc(N3N=C4c5ccccc5CC4C3c3cccs3)cc2)N1C(=O)c1ccccc1` (centres undefined), the GI50 with HCT-116 colon is 22 µM; with OVCAR-5 ovarian, 32.2 µM; in the test on LOX IMVI melanoma it was 22.7 µM; with SF-295 CNS, 31.7 µM; in the test on DU-145 prostate it was 38.2 µM; in the test with COLO 205 colon, 51.1 µM. In the test with HCC-2998 colon, the GI50 is 17.6 µM. Further, the TGI in the test with HCT-116 colon was 55.9 µM; with OVCAR-5 ovarian, more than 100 µM; in the test on LOX IMVI melanoma, 54 µM; in the test on SF-295 CNS it was more than 100 µM; with DU-145 prostate, more than 100 µM; in the test on COLO 205 colon, more than 100 µM. Also, the TGI with HCC-2998 colon is 46.6 µM.

For `N#C/C(=C/N1CCN(C(=O)c2ccco2)C1=S)C(=O)Nc1ccc(Cl)cc1`, the GI50 was 15.2 µM in the test with HCT-116 colon; 16.7 µM in the test with LOX IMVI melanoma; 20.2 µM in the test with SF-295 CNS; 15.9 µM in the test with DU-145 prostate; 21.4 µM with MALME-3M melanoma; 25.6 µM with COLO 205 colon. Also, the TGI in the test on HCT-116 colon, with LOX IMVI melanoma, in the test with SF-295 CNS, in the test with DU-145 prostate, with MALME-3M melanoma and with COLO 205 colon was more than 50 µM in each case.

On to `FC(F)c1ncc(-c2ccc(C(F)(F)F)cc2)c(NC2CCCCCC2)n1`, for which the GI50 with HCT-116 colon, in the test with OVCAR-5 ovarian, in the test with LOX IMVI melanoma, with SF-295 CNS, in the test on DU-145 prostate and in the test on MALME-3M melanoma was more than 10 µM throughout. The GI50 in the test on COLO 205 colon and in the test on HCC-2998 colon was more than 10 µM throughout. The TGI with HCT-116 colon, in the test with OVCAR-5 ovarian, in the test on LOX IMVI melanoma, in the test with SF-295 CNS, in the test on DU-145 prostate and in the test on MALME-3M melanoma was more than 10 µM in each case. The TGI in the test with COLO 205 colon and with HCC-2998 colon was more than 10 µM each time.

For the molecule `C1CSC[C@H]2COC[C@@H](CSCCS1)S2`, the TGI in the test with HCT-116 colon, with OVCAR-5 ovarian, with LOX IMVI melanoma, in the test with SF-295 CNS, in the test with DU-145 prostate and with COLO 205 colon was more than 100 µM in each case. Besides, the TGI with HCC-2998 colon is more than 100 µM.

With `CCCCC#Cc1c(I)n(C2OC(CO[Si](C)(C)C(C)(C)C)C3OC(C)(C)OC32)c(=O)n(C(=O)c2ccccc2)c1=O` (centres undefined), the GI50 in the test on HCT-116 colon is 1.36 µM; in the test on OVCAR-5 ovarian it was 17.1 µM; in the test on LOX IMVI melanoma it was 5.54 µM; in the test with SF-295 CNS, 12.7 µM; with DU-145 prostate, 2.25 µM; in the test on MALME-3M melanoma, 2.5 µM. Besides, in the test on COLO 205 colon, the GI50 is 1.59 µM. Moreover, the TGI in the test with HCT-116 colon was 2.74 µM; in the test on OVCAR-5 ovarian, 31.7 µM; in the test on LOX IMVI melanoma it was 38.5 µM; with SF-295 CNS, 27.3 µM; in the test with DU-145 prostate it was 4.68 µM; in the test on MALME-3M melanoma, 4.91 µM. Moreover, the TGI in the test with COLO 205 colon was determined as 3.14 µM.

`COc1cc(C2c3cc4c(cc3OC(O)C2C)OCO4)cc(OC)c1OC` (centres undefined): the TGI in the test on HCT-116 colon was more than 69.9 µM; in the test with OVCAR-5 ovarian it was more than 100 µM; in the test on LOX IMVI melanoma it was more than 100 µM; in the test with SF-295 CNS, more than 48.8 µM; with DU-145 prostate, more than 100 µM; with MALME-3M melanoma it was 73.2 µM. Further, in the test on HCC-2998 colon, the TGI was more than 41.8 µM.

For `CC12OC(C(=O)C13CC3)C1C(=O)c3c(O)ccc(O)c3C(=O)C12` (centres undefined), the GI50 is 14.3 µM in the test on HCT-116 colon; 19.4 µM in the test with OVCAR-5 ovarian; 13.7 µM with MALME-3M melanoma; 15.4 µM in the test on COLO 205 colon; 11.9 µM in the test on HCC-2998 colon. For the same molecule, the TGI in the test with HCT-116 colon was 28.2 µM; in the test with OVCAR-5 ovarian it was 43.8 µM; with MALME-3M melanoma, 30.5 µM; in the test with COLO 205 colon, 35.8 µM; with HCC-2998 colon it was 27.4 µM.

`CC1CCCC(C#N)(NOC2=NCCN2)C1` (centres undefined): the GI50 with HCT-116 colon was 31.7 µM; in the test on OVCAR-5 ovarian, more than 100 µM; in the test on LOX IMVI melanoma, 12.7 µM; in the test on SF-295 CNS it was 31 µM; in the test on DU-145 prostate, 24.1 µM; with COLO 205 colon it was 61.3 µM. Further, the TGI was more than 100 µM in the test with HCT-116 colon; more than 100 µM with OVCAR-5 ovarian; 25.4 µM in the test with LOX IMVI melanoma; more than 100 µM in the test with SF-295 CNS; more than 100 µM with DU-145 prostate; more than 100 µM in the test on COLO 205 colon.

For `COc1cc(OC)c2c(=O)cc(-c3ccccc3OCc3ccccc3)oc2c1OC`, the GI50 was 9.22 µM in the test with HCT-116 colon; 18 µM in the test with OVCAR-5 ovarian; 10.2 µM in the test on LOX IMVI melanoma; 4.65 µM with SF-295 CNS; 18.5 µM with DU-145 prostate; 2.39 µM in the test with HCC-2998 colon. For the same molecule, the TGI was 50.5 µM with HCT-116 colon; 84.3 µM in the test with OVCAR-5 ovarian; more than 100 µM with LOX IMVI melanoma; 26.8 µM in the test with SF-295 CNS; more than 100 µM in the test with DU-145 prostate; 7.54 µM in the test with HCC-2998 colon.

Regarding `CC(C)C1(NC(=O)C2CC3c4cccc5[nH]cc(c45)CC3N(C)C2)OC2(O)C3CCCN3C(=O)C(Cc3ccccc3)N2C1=O` (centres undefined), the TGI with HCT-116 colon is more than 100 µM; with OVCAR-5 ovarian it was more than 100 µM; in the test on LOX IMVI melanoma, 47.7 µM; with SF-295 CNS it was more than 100 µM; in the test on DU-145 prostate, more than 100 µM; in the test on COLO 205 colon, more than 100 µM. Also, the TGI with HCC-2998 colon was more than 100 µM.

For the molecule `COC(=O)c1onc(C2OC(C)(C)OC2C(O)COC(c2ccccc2)(c2ccccc2)c2ccccc2)c1C(=O)OC` (centres undefined), the TGI in the test on HCT-116 colon, in the test with OVCAR-5 ovarian, in the test with DU-145 prostate, with MALME-3M melanoma, in the test with COLO 205 colon and in the test with HCC-2998 colon was more than 100 µM throughout.

Regarding `CC12CCC(=O)C(O1)C1C(=O)c3ccc4c(ccc5ccccc54)c3C(=O)C12` (centres undefined), the GI50 in the test with HCT-116 colon is 3.03 µM; in the test with OVCAR-5 ovarian, 6.64 µM; in the test with LOX IMVI melanoma it was 0.477 µM; in the test with SF-295 CNS, 1.46 µM; in the test with DU-145 prostate it was 2.73 µM; with MALME-3M melanoma, 0.945 µM. For the same molecule, in the test with COLO 205 colon, the GI50 is 2.13 µM. The TGI with HCT-116 colon came to 4.71 µM; in the test on OVCAR-5 ovarian, 11.4 µM; in the test with LOX IMVI melanoma it was 3.57 µM; with SF-295 CNS, 3 µM; with DU-145 prostate it was 6.49 µM; with MALME-3M melanoma it was 4.4 µM. The TGI in the test with COLO 205 colon was more than 59.1 µM.
